Measured values: US11090317B2, “Aminophosphinic derivatives for preventing and treating eye inflammation” (priority 2017, dated 2021)
Entries after “also recorded” stand apart in the source; their conditions may differ.

Tests used:
[1] = system: Iba1 (ionized calcium binding adaptor molecule 1); assay: Iba1 immuno-histology in trigeminal ganglion, inflammatory keratitis model induced by LPS; type: in vivo, mice; conditions: LPS inflammation model; twice-daily instillation of 10 mM for 5 days
Excerpt: (§1) ATF3 (activating transcription factor 3) is a transcription factor of the family of ATF which modulates the inflammatory response of several diseases. In physiological conditions, the primary sensory neurones express very little ATF3. An increase in the number of positive neurones for ATF-3 then underlines neuronal suffering linked to an inflammatory process. In the same way, Iba1 (ionized calcium-binding adapter molecule 1) is expressed in the microglial cells activated by the presence of macrophages and thus by an inflammatory process.
(§2) Two hours after the final instillation of LPS, a mixture of 300 μL of ketamine […] (100 mg/kg of body weight) and xylazine (10 mg/kg of body weight, Virbac, France) was injected by intraperitoneal route to deeply anaesthetise the animals. After fixation, the trigeminal ganglia and the eyes were carefully dissected and post-fixated for 48 h in the same fixation mixture. Sections (40 μm) of the complex of the trigeminal sub-nucleus ([…]) were formed using a Vibratom (Leica Microsystems, Germany). The TG were placed in a 10% solution of sucrose in 1×PBS (overnight), then in a 30% solution of sucrose before freezing at −20° C. in a mixture of 7.5% gelatine and 10% sucrose. Sections (14 μm) were made in the cryostat for the TG and the eyes and conserved at −20° C. […]

cornea = assay: Corneal inflammation by in vivo confocal microscopy in inflammatory model induced by LPS (corneal scratch); design: species or system mice C57Bl/6; conditions: twice-daily instillation of 10 mM for 5 consecutive days; scratch + LPS 50 μg (1× or 2×); evaluated on the 5th day
Protocol: A corneal epithelial lesion (abrasion designated “scratch” in the figures) is made on the right eye of male mice C57Bl/6, 8 weeks old, using a trephine (diameter 1.5 mm) on the anaesthetised animal (isoflurane). A drop (10 μl) of LPS (50 μg) is […] deposited on the injured area and is left in contact with the cornea until the animal awakens. The experimentalist ensures the animal awakens correctly, which occurs within two minutes following the intervention.
The first topical treatment using a solution of PBS (phosphate buffer pH=7.4) (1×) or a solution of compound 1 (10 mM of compound 1 in a solution of PBS (1×)) was carried out 2 h after the instillation of LPS. This treatment was extended 2 times a day for 5 days. Four animal cages were studied:
The eye inflammation of the mice was evaluated on the 5th day using a confocal microscope in vivo. This enable images to be obtained (cellular and intercellular definition) of the cornea including the corneal epithelium, the nerve plexus, the stroma and the endothelium thanks to a capsule (Tomocap)/corneal module of the apparatus placed in contact with the cornea. The morphological changes of all the cells constituting the cornea and the corneal nerves are easily observable and quantifiable. All of the animals were anaesthetised by intraperitoneal injection (ketamine 100 mg/kg and xylazine 10 mg/kg). […]

[2] = system: ATF3 (activating transcription factor 3); assay: ATF3 immuno-histology in trigeminal ganglion, inflammatory keratitis model induced by LPS; type: in vivo, mice; conditions: LPS inflammation model; twice-daily instillation of 10 mM for 5 days
Excerpt: as §1, §2

corneal epithelium = conditions: topical administration, versus non-treated corneas, cited from earlier work

SMILES	Iba1 in the trigeminal ganglion (coloration of activated microglial cells expressing Iba-1) versus PBS control group [1]	eye inflammation of the corneas (confocal images) compared to PBS 1× (cornea)	expression of ATF3 in the trigeminal ganglion versus PBS control group [2]	development of an oedema of the stroma (corneal epithelium; 12 h after treatment)	infiltration of immune cells (corneal epithelium)
CC(OC(=O)N[C@@H](C)P(=O)([O-])C[C@@H](Cc1ccc(-c2ccccc2)cc1)C(=O)N[C@@H](C)C(=O)[O-])OC(=O)C(C)C.[Na+].[Na+] (some centres unmarked) [compound 1]	considerably reduces the coloration of activated microglial cells expressing Iba-1; also recorded: reduce significantly	less inflammatory	considerably reduces the expression of ATF3; also recorded: reduce significantly		
CN1CC[C@]23c4c5ccc(O)c4O[C@H]2[C@@H](O)C=C[C@H]3[C@H]1C5 [morphine]				retard the development of an oedema of the stroma	very few immune cells present
